From patent US20240174618A1, “SUBSTITUTED (2-HETEROARYLOXYPHENYL)SULFONATES, SALTS THEREOF AND THEIR USE AS HERBICIDAL AGENTS” (Bayer Aktiengesellschaft, priority 2021, published 2024)

What was measured:
Format in all cases: in vivo
[1] = tested on: Echinochloa crus-galli (ECHCG); test: A. Herbicidal pre-emergence efficacy, ECHCG; settings: 1280 g/ha; scored visually after about 3 weeks vs untreated controls
Excerpt: (§1) Seeds of mono- and dicotyledonous weed plants were placed in plastic pots in sandy loam soil (doubly sown with one species each of mono- or dicotyledonous weed plants per pot) and covered with soil. The compounds of the invention, formulated in the form of wettable powders (WP) or as emulsion concentrates (EC), were then applied onto the surface of the covering soil as aqueous suspension or emulsion with addition of 0.5% additive at a water application rate of 600 liters per hectare (converted). After the treatment, the pots were placed in a greenhouse and kept under good growth conditions for the test plants. After about 3 weeks, the efficacy of the preparations was scored visually in comparison with untreated controls as percentages.
(§2) For example, • 100% efficacy=plants have died, • 0% efficacy=like untreated control plants.
(§3) Tables A1a to A12c below show the effects of selected compounds of the general formula (I) according to table 1 on various harmful plants at an application rate corresponding to 1280 g/ha or less, which were obtained by the experimental procedure mentioned above.

Veronica persica (VERPE) [2] = test: A. Herbicidal pre-emergence efficacy, VERPE
Excerpt: as §1, §2, §3

Kochia scoparia (KCHSC) [3] = test: B. Herbicidal post-emergence efficacy, KCHSC; settings: for Post-emergence efficacy against KCHSC in %: 320 g/ha, rated visually after about 3 weeks; for Post-emergence efficacy against KCHSC: 1280 g/ha
Procedure: (§4) Seeds of mono- and dicotyledonous weed plants were placed in plastic pots in sandy loam soil (doubly sown with in each case one species of mono- or dicotyledonous weed plants per pot), covered with soil and cultivated in a greenhouse under controlled growth conditions. 2 to 3 weeks after sowing, the test plants were treated at the one-leaf stage. The compounds of the invention, formulated in the form of wettable powders (WP) or as emulsion concentrates (EC), were applied onto the green parts of the plants as aqueous suspension or emulsion with addition of 0.5% additive at a water application rate of 600 liters per hectare (converted). After the test plants had been kept in the greenhouse under optimum growth conditions for about 3 weeks, the activity of the preparations was rated visually in comparison to untreated controls.
(§5) For example, • 100% efficacy=plants have died, • 0% efficacy=like untreated control plants
(§6) Tables B1a to B12c below show the effects of selected inventive compounds of the general formula (I) according to table 1 on various harmful plants at an application rate corresponding to 1280 g/ha or less, which were obtained by the experimental procedure mentioned above.

[4] = tested on: Amaranthus retroflexus (AMARE); test: B. Herbicidal post-emergence efficacy, AMARE
Procedure: as §4, §5, §6

Setaria viridis (SETVI) [5] = test: A. Herbicidal pre-emergence efficacy, SETVI
Excerpt: as §1, §2, §3

Poa annua (POAAN) [6] = test: A. Herbicidal pre-emergence efficacy, POAAN
Excerpt: as §1, §2, §3

[7] = tested on: Abutilon theophrasti (ABUTH); test: B. Herbicidal post-emergence efficacy, ABUTH; settings: rated visually after about 3 weeks
Procedure: as §4, §5, §6

Kochia scoparia (KCHSC) [8] = test: A. Herbicidal pre-emergence efficacy, KCHSC; settings: pre-emergence
Excerpt: as §1, §2, §3

[9] = tested on: Digitaria sanguinalis (DIGSA); test: B. Herbicidal post-emergence efficacy, DIGSA; settings: rated visually after about 3 weeks
Procedure: as §4, §5, §6

[10] = tested on: Digitaria sanguinalis (DIGSA); test: A. Herbicidal pre-emergence efficacy, DIGSA; settings: scored visually after about 3 weeks vs untreated controls
Excerpt: as §1, §2, §3

[11] = tested on: Amaranthus retroflexus (AMARE); test: A. Herbicidal pre-emergence efficacy, AMARE
Excerpt: as §1, §2, §3

Veronica persica (VERPE) [12] = test: B. Herbicidal post-emergence efficacy, VERPE
Procedure: as §4, §5, §6

Stellaria media (STEME) [13] = test: B. Herbicidal post-emergence efficacy, STEME
Procedure: as §4, §5, §6

Stellaria media (STEME) [14] = test: A. Herbicidal pre-emergence efficacy, STEME
Excerpt: as §1, §2, §3

[15] = tested on: Echinochloa crus-galli (ECHCG); test: B. Herbicidal post-emergence efficacy, ECHCG; settings: 1280 g/ha, rated visually after about 3 weeks
Procedure: as §4, §5, §6

[16] = tested on: Matricaria inodora (MATIN); test: A. Herbicidal pre-emergence efficacy, MATIN
Excerpt: as §1, §2, §3

Poa annua (POAAN) [17] = test: B. Herbicidal post-emergence efficacy, POAAN; settings: 1280 g/ha
Procedure: as §4, §5, §6

Lolium rigidum (LOLRI) = test: A. Herbicidal pre-emergence efficacy, LOLRI; settings: dosage 1280 g/ha
Excerpt: as §1, §2, §3

Setaria viridis (SETVI) [18] = test: B. Herbicidal post-emergence efficacy, SETVI; settings: 1280 g/ha
Procedure: as §4, §5, §6

[19] = tested on: Abutilon theophrasti (ABUTH); test: A. Herbicidal pre-emergence efficacy, ABUTH; settings: 1280 g/ha; scored visually after about 3 weeks vs untreated controls
Excerpt: as §1, §2, §3

[20] = 320 g/ha, scored visually after about 3 weeks vs untreated controls
[21] = pre-emergence, dosage 1280 g/ha

Row | SMILES | Pre-emergence efficacy against ECHCG [1] | Pre-emergence efficacy against VERPE in % (Veronica persica (VERPE) [2]; 1280 g/ha) | Post-emergence efficacy against KCHSC in % (Kochia scoparia (KCHSC) [3]) | Post-emergence efficacy against KCHSC (Kochia scoparia (KCHSC) [3]) | Post-emergence efficacy against AMARE ([4]; 320 g/ha) | Post-emergence efficacy against AMARE ([4]; 1280 g/ha) | Pre-emergence efficacy against SETVI (Setaria viridis (SETVI) [5]; dosage 320 g/ha) | Pre-emergence efficacy against SETVI (Setaria viridis (SETVI) [5]; dosage 1280 g/ha) | Pre-emergence efficacy against POAAN (Poa annua (POAAN) [6]; dosage 320 g/ha) | Pre-emergence efficacy against POAAN (Poa annua (POAAN) [6]; dosage 1280 g/ha) | Post-emergence efficacy against ABUTH in % ([7]; 1280 g/ha) | Pre-emergence efficacy against KCHSC (Kochia scoparia (KCHSC) [8]; dosage 1280 g/ha) | Post-emergence efficacy against DIGSA in % ([9]; 1280 g/ha) | Pre-emergence efficacy against DIGSA ([10]; 1280 g/ha) | Pre-emergence efficacy against AMARE in % ([11]; 320 g/ha) | Pre-emergence efficacy against AMARE in % ([11]; 1280 g/ha) | Post-emergence efficacy against VERPE (Veronica persica (VERPE) [12]; 320 g/ha) | Post-emergence efficacy against VERPE (Veronica persica (VERPE) [12]; 1280 g/ha) | Post-emergence efficacy against STEME (Stellaria media (STEME) [13]; 1280 g/ha) | Pre-emergence efficacy against STEME (Stellaria media (STEME) [14]; dosage 1280 g/ha) | also measured
1 | O=S(=O)(CCCC(F)(F)F)Oc1ccccc1Oc1ccc(Cl)cn1 [Example I-26] | 90% | 100% | 90% | 90% | 90% | 90% | 90% | 100% | 90% | 100% | 90% | 90% | 90% | 100% | 90% | 100% | 90% | 90% | 90% | 90% | Post-emergence efficacy against ECHCG in % [15]: 90%
2 | O=S(=O)(CCC1CC1(Cl)Cl)Oc1c(F)cccc1Oc1ncc(Cl)cn1 (centres unmarked) [Example I-51] | 90% | 100% |  | 90% | 90% | 90% | 90% | 90% |  | 100% | 90% | 100% |  | 100% | 100% | 100% |  | 90% | 90% | 100% | Pre-emergence efficacy against MATIN [16, 20]: 90%; Pre-emergence efficacy against MATIN [16, 21]: 90%; Post-emergence efficacy against AMARE ([4]; 80 g/ha): 90%; Post-emergence efficacy against ABUTH in % ([7]; 320 g/ha): 90%; Pre-emergence efficacy against DIGSA ([10]; 320 g/ha): 90%; Pre-emergence efficacy against AMARE in % ([11]; 80 g/ha): 90%; Post-emergence efficacy against POAAN (Poa annua (POAAN) [17]): 90%; Post-emergence efficacy against STEME (Stellaria media (STEME) [13]; 80 g/ha): 90%; Post-emergence efficacy against STEME (Stellaria media (STEME) [13]; 320 g/ha): 90%; Pre-emergence efficacy against STEME (Stellaria media (STEME) [14]; dosage 320 g/ha): 90%; Pre-emergence efficacy against LOLRI (Lolium rigidum (LOLRI)): 90%; Post-emergence efficacy against ECHCG in % [15]: 90%
3 | N#Cc1cc(Cl)cnc1Oc1ccccc1OS(=O)(=O)CCCCl [Example I-59] | 100% | 100% | 90% | 90% | 90% | 90% | 100% | 100% | 100% | 100% | 90% | 100% | 90% | 100% | 100% | 100% | 90% | 90% | 90% | 100% | Post-emergence efficacy against SETVI (Setaria viridis (SETVI) [18]): 90%; Pre-emergence efficacy against VERPE in % (Veronica persica (VERPE) [2]; 320 g/ha): 90%; Pre-emergence efficacy against MATIN [16, 20]: 90%; Pre-emergence efficacy against MATIN [16, 21]: 100%; Pre-emergence efficacy against ABUTH [19]: 90%; Post-emergence efficacy against AMARE ([4]; 80 g/ha): 90%; Post-emergence efficacy against ABUTH in % ([7]; 320 g/ha): 90%; Pre-emergence efficacy against KCHSC (Kochia scoparia (KCHSC) [8]; dosage 320 g/ha): 100%; Post-emergence efficacy against DIGSA in % ([9]; 320 g/ha): 90%; Pre-emergence efficacy against DIGSA ([10]; 320 g/ha): 100%; Pre-emergence efficacy against AMARE in % ([11]; 80 g/ha): 100%; Post-emergence efficacy against POAAN (Poa annua (POAAN) [17]): 90%; Post-emergence efficacy against VERPE (Veronica persica (VERPE) [12]; 80 g/ha): 90%; Post-emergence efficacy against STEME (Stellaria media (STEME) [13]; 320 g/ha): 90%; Pre-emergence efficacy against STEME (Stellaria media (STEME) [14]; dosage 80 g/ha): 90%; Pre-emergence efficacy against STEME (Stellaria media (STEME) [14]; dosage 320 g/ha): 100%; Pre-emergence efficacy against LOLRI (Lolium rigidum (LOLRI)): 90%
